*1 amine or outer side, *2 acyl side, *3 side chain or, on linkers, in order; H or OH if unused. Where a SMILES comes first, the peptide text is derived from it. Side-chain parts run from the residue outwards. [ ]: non-standard residue; d: D form. The star is where a group is joined. X13 = CCCCCCCCCCCCCCCC(=O)N[C@@H](CCC(=O)N[C@@H](CCC(=O)N[C@@H](CCC(=O)NCCCC[C@H](NC(=O)COCC(=O)NCCCOCCOCCOCCCN*)C(N)=O)C(=O)O)C(=O)O)C(=O)O; X16 = CCCCCCCCCCCCCCCCCC(=O)N[C@@H](CCC(=O)N[C@@H](CCC(=O)N[C@@H](CCC(=O)NCCCOCCOCCOCCCNC(=O)COCC(=O)*)C(=O)O)C(=O)O)C(=O)O; PEG12 = NCCOCCOCCOCCOCCOCCOCCOCCOCCOCCOCCOCCOCCC(=O)O; Lys(Me3) = C[N+](C)(C)CCCC[C@H](N)C(=O)O; γGlu = O=C(O)[C@H](CCC(=O)[*:2])N[*:1]; Arg(Me) = CNC(=N)NCCC[C@H](N)C(=O)O; Stearoyl = CCCCCCCCCCCCCCCCCC(=O)*; Palmitoyl = CCCCCCCCCCCCCCCC(=O)*; αMeK = C[C@](N)(CCCCN)C(=O)O; Nle = CCCC[C@H](N)C(=O)O; AEEA = NCCOCCOCC(=O)O; Aib = CC(C)(N)C(=O)O
Target: T1, RXFP1 (Homo sapiens, UniProt Q9HBX9)
T1 construct: OVCAR5 cells expressing endogenous RXFP1; endogenous in cells; host or cells: OVCAR5 cells
T1 sequence (Q9HBX9 1-757): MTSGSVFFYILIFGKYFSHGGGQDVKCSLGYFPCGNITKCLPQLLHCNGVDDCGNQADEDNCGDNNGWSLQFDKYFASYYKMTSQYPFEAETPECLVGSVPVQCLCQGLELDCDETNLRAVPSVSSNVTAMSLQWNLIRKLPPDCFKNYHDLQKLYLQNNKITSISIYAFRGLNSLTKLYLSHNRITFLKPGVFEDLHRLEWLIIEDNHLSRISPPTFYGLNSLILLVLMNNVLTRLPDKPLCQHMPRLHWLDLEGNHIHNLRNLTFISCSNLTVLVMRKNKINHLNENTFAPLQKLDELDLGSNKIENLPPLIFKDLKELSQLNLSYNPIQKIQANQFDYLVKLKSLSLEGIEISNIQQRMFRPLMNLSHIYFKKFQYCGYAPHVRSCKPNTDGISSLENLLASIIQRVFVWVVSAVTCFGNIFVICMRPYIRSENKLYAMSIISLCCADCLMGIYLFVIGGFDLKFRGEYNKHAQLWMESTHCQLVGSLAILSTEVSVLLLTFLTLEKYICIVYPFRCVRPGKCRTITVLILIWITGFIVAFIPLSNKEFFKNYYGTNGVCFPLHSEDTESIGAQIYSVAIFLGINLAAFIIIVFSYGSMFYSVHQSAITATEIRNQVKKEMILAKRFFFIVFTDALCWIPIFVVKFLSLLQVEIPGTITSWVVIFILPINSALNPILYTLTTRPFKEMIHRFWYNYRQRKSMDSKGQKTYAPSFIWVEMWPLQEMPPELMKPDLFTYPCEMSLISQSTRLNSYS
Assay: OVCAR5 cAMP assay (HTRF), RXFP1 agonist activity
Format: cell-based
Conditions: for EC50: OVCAR5 cells, cAMP HTRF, read-out: EC50 (nM), OVCAR 5 cells (cAMP); for Emax: OVCAR-5, maximal cAMP relative to H2-relaxin maximum (100%), read-out: EMax, OVCAR 5 cells (cAMP)
Outline: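 cAMP accumulation readout: after 1 mM IBMX for 40 min, endogenous-RXFP1 OVCAR5 cells got rising peptide concentrations without FCS, 30 min, 37° C, then lysis with HTRF cAMP reagents. Nonlinear regression gave EC50; Emax expressed relative to H2-relaxin maximum, same occasion.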

Row | SMILES | EC50 | Emax
1 | CCCCCCCCCCCCCCCCCC(=O)N[C@@H](CCC(=O)N[C@@H](CCC(=O)N[C@@H](CCC(=O)NCCCC[C@H](NC(=O)CCOCCOCCOCCOCCOCCOCCOCCOCCOCCOCCOCCOCCNC(=O)[C@H](CCCCN)NC(=O)[C@H](CCCCN)NC(=O)[C@H](CCCNC(=N)N)NC(=O)C(C)(C)NC(=O)[C@H](CO)NC(=O)[C@H](Cc1c[nH]c2ccccc12)NC(=O)[C@@H](NC(=O)[C@H](CO)NC(=O)[C@H](CCCC)NC(=O)CNC(=O)[C@H](CCC(=O)O)NC(=O)C(C)(C)NC(=O)C(C)(C)NC(=O)[C@@H](NC(=O)[C@H](CCCCNC(C)=O)NC(=O)[C@H](C)NC(=O)[C@H](CCCNC(=N)N)NC(=O)[C@@H](NC(=O)[C@H](CCCCN)NC(=O)[C@H](CCC(=O)O)NC(=O)[C@H](CCCNC(=N)N)NC(=O)CNC(=O)[C@H](CCC(=O)O)NC(=O)[C@H](CC(C)C)NC(C)=O)C(C)C)[C@@H](C)CC)[C@@H](C)O)C(N)=O)C(=O)O)C(=O)O)C(=O)O [compound 32] (Ac-LEGREKVRAK(Ac)I[Aib][Aib]EG[Nle]STWS[Aib]RKK[PEG12]K([γGlu-γGlu-γGlu-Stearoyl])-NH2) | 1.04 nM | 96%
2 | CCCCCCCCCCCCCCCC(=O)N[C@@H](CCC(=O)N[C@@H](CCC(=O)N[C@@H](CCC(=O)NCCCC[C@H](NC(=O)COCC(=O)NCCCOCCOCCOCCCNC(=O)[C@H](CCCCNC(C)=O)NC(=O)[C@H](CCCCN)NC(=O)[C@H](CCCNC(=N)N)NC(=O)C(C)(C)NC(=O)[C@H](CO)NC(=O)[C@H](Cc1c[nH]c2ccccc12)NC(=O)[C@@H](NC(=O)[C@H](CO)NC(=O)[C@H](CCC(N)=O)NC(=O)CNC(=O)[C@H](CCC(=O)O)NC(=O)C(C)(C)NC(=O)C(C)(C)NC(=O)[C@@H](NC(=O)[C@H](CCCCNC(C)=O)NC(=O)[C@H](C)NC(=O)[C@H](CCCNC(=N)N)NC(=O)[C@@H](NC(=O)[C@H](CCCCN)NC(=O)[C@H](CCC(=O)O)NC(=O)[C@H](CCCNC(=N)N)NC(=O)CNC(=O)[C@H](CCC(=O)O)NC(=O)[C@H](CC(C)C)NC(C)=O)C(C)C)[C@@H](C)CC)[C@@H](C)O)C(N)=O)C(=O)O)C(=O)O)C(=O)O [compound 176] (Ac-LEGREKVRAK(Ac)I[Aib][Aib]EGQSTWS[Aib]RKK(Ac)-X13) | – | 90%
3 | CCCCCCCCCCCCCCCC(=O)N[C@@H](CCC(=O)N[C@@H](CCC(=O)N[C@@H](CCC(=O)N[C@@H](CCC(=O)NCCOCCOCC(=O)NCCOCCOCC(=O)NCCOCCOCC(=O)NCCOCCOCC(=O)NCCCC[C@H](NC(=O)[C@H](CCCCNC(C)=O)NC(=O)[C@H](CCCC[N+](C)(C)C)NC(=O)[C@H](CCCNC(=N)NC)NC(=O)[C@](C)(CCCCN)NC(=O)[C@H](CO)NC(=O)[C@H](Cc1c[nH]c2ccccc12)NC(=O)[C@@H](NC(=O)[C@H](CO)NC(=O)[C@H](CCCC)NC(=O)CNC(=O)[C@H](CCC(=O)O)NC(=O)C(C)(C)NC(=O)C(C)(C)NC(=O)[C@@H](NC(=O)[C@H](CCCCNC(C)=O)NC(=O)[C@H](C)NC(=O)[C@H](CCCNC(=N)N)NC(=O)[C@@H](NC(=O)[C@H](CCCCN)NC(=O)[C@H](CCC(=O)O)NC(=O)[C@H](CCCNC(=N)N)NC(=O)CNC(=O)[C@H](CCC(=O)O)NC(=O)[C@H](CC(C)C)NC(C)=O)C(C)C)[C@@H](C)CC)[C@@H](C)O)C(N)=O)C(=O)O)C(=O)O)C(=O)O)C(=O)O [compound 141] (Ac-LEGREKVRAK(Ac)I[Aib][Aib]EG[Nle]STWS[αMeK][Arg(Me)][Lys(Me3)]K(Ac)K([AEEA-AEEA-AEEA-AEEA-γGlu-γGlu-γGlu-γGlu-Palmitoyl])-NH2) | 0.16 nM | 87%
4 | CCCCCCCCCCCCCCCCCC(=O)N[C@@H](CCC(=O)N[C@@H](CCC(=O)N[C@@H](CCC(=O)NCCOCCOCC(=O)NCCOCCOCC(=O)NCCOCCOCC(=O)NCCCC[C@H](NC(=O)[C@H](CCCCNC(C)=O)NC(=O)[C@H](CCCCN)NC(=O)[C@H](CCCNC(=N)NC)NC(=O)C(C)(C)NC(=O)[C@H](CO)NC(=O)[C@H](Cc1c[nH]c2ccccc12)NC(=O)[C@@H](NC(=O)[C@H](CO)NC(=O)[C@H](CCCC)NC(=O)CNC(=O)[C@H](CCC(=O)O)NC(=O)C(C)(C)NC(=O)C(C)(C)NC(=O)[C@@H](NC(=O)[C@H](CCCCNC(C)=O)NC(=O)[C@H](C)NC(=O)[C@H](CCCNC(=N)N)NC(=O)[C@@H](NC(=O)[C@H](CCCCN)NC(=O)[C@H](CCC(=O)O)NC(=O)[C@H](CCCNC(=N)N)NC(=O)CNC(=O)[C@H](CCC(=O)O)NC(=O)[C@H](CC(C)C)NC(C)=O)C(C)C)[C@@H](C)CC)[C@@H](C)O)C(N)=O)C(=O)O)C(=O)O)C(=O)O [compound 133] (Ac-LEGREKVRAK(Ac)I[Aib][Aib]EG[Nle]STWS[Aib][Arg(Me)]KK(Ac)K([AEEA-AEEA-AEEA-γGlu-γGlu-γGlu-Stearoyl])-NH2) | 0.01 nM | 83%
5 | CCCCCCCCCCCCCCCCCC(=O)N[C@@H](CCC(=O)N[C@@H](CCC(=O)N[C@@H](CCC(=O)NCCOCCOCC(=O)NCCOCCOCC(=O)NCCOCCOCC(=O)NCCCC[C@H](NC(=O)[C@H](CCCCNC(C)=O)NC(=O)[C@H](C)NC(=O)[C@H](C)NC(=O)C(C)(C)NC(=O)[C@H](CO)NC(=O)[C@H](Cc1c[nH]c2ccccc12)NC(=O)[C@@H](NC(=O)[C@H](CO)NC(=O)[C@H](CCCC)NC(=O)CNC(=O)[C@H](CCC(=O)O)NC(=O)C(C)(C)NC(=O)C(C)(C)NC(=O)[C@@H](NC(=O)[C@H](CCCCNC(C)=O)NC(=O)[C@H](C)NC(=O)[C@H](CCCNC(=N)N)NC(=O)[C@@H](NC(=O)[C@H](CCCCN)NC(=O)[C@H](CCC(=O)O)NC(=O)[C@H](CCCNC(=N)N)NC(=O)CNC(=O)[C@H](CCC(=O)O)NC(=O)[C@H](CC(C)C)NC(C)=O)C(C)C)[C@@H](C)CC)[C@@H](C)O)C(N)=O)C(=O)O)C(=O)O)C(=O)O [compound 155] (Ac-LEGREKVRAK(Ac)I[Aib][Aib]EG[Nle]STWS[Aib]AAK(Ac)K([AEEA-AEEA-AEEA-γGlu-γGlu-γGlu-Stearoyl])-NH2) | – | 95%
6 | CCCCCCCCCCCCCCCCCC(=O)N[C@@H](CCC(=O)N[C@@H](CCC(=O)N[C@@H](CCC(=O)NCCOCCOCC(=O)NCCOCCOCC(=O)NCCOCCOCC(=O)NCCCC[C@H](NC(=O)[C@H](CC(C)C)NC(=O)[C@H](CCCCN)NC(=O)[C@H](CCCNC(=N)N)NC(=O)C(C)(C)NC(=O)[C@H](CO)NC(=O)[C@H](Cc1c[nH]c2ccccc12)NC(=O)[C@@H](NC(=O)[C@H](CO)NC(=O)[C@H](CCCC)NC(=O)CNC(=O)[C@H](CCC(=O)O)NC(=O)C(C)(C)NC(=O)C(C)(C)NC(=O)[C@@H](NC(=O)[C@H](CCCCNC(C)=O)NC(=O)[C@H](C)NC(=O)[C@H](CCCNC(=N)N)NC(=O)[C@@H](NC(=O)[C@H](CCCCN)NC(=O)[C@H](CCC(=O)O)NC(=O)[C@H](CCCNC(=N)N)NC(=O)CNC(=O)[C@H](CCC(=O)O)NC(=O)[C@H](CC(C)C)NC(C)=O)C(C)C)[C@@H](C)CC)[C@@H](C)O)C(N)=O)C(=O)O)C(=O)O)C(=O)O [compound 86] (Ac-LEGREKVRAK(Ac)I[Aib][Aib]EG[Nle]STWS[Aib]RKLK([AEEA-AEEA-AEEA-γGlu-γGlu-γGlu-Stearoyl])-NH2) | 0.69 nM | 79%
7 | CCCCCCCCCCCCCCCC(=O)N[C@@H](CCC(=O)N[C@@H](CCC(=O)NCCCC[C@H](NC(=O)[C@H](CCCCN)NC(=O)[C@H](CCCNC(=N)N)NC(=O)C(C)(C)NC(=O)[C@H](CO)NC(=O)[C@H](Cc1c[nH]c2ccccc12)NC(=O)[C@@H](NC(=O)[C@H](CO)NC(=O)[C@H](CCCC)NC(=O)CNC(=O)[C@H](CCC(=O)O)NC(=O)C(C)(C)NC(=O)C(C)(C)NC(=O)[C@@H](NC(=O)[C@H](C)NC(=O)[C@H](C)NC(=O)[C@H](CCCNC(=N)N)NC(=O)[C@@H](NC(=O)[C@H](CCCCN)NC(=O)[C@H](CCC(=O)O)NC(=O)[C@H](CCCNC(=N)N)NC(=O)CNC(=O)[C@H](CCC(=O)O)NC(=O)[C@H](CC(C)C)NC(=O)[C@H](CCC(=O)O)NC(C)=O)C(C)C)[C@@H](C)CC)[C@@H](C)O)C(N)=O)C(=O)O)C(=O)O [compound 4] (Ac-ELEGREKVRAAI[Aib][Aib]EG[Nle]STWS[Aib]RKK([γGlu-γGlu-Palmitoyl])-NH2) | – | 99%
8 | CCCCCCCCCCCCCCCCCC(=O)N[C@@H](CCC(=O)N[C@@H](CCC(=O)N[C@@H](CCC(=O)NCCCOCCOCCOCCCNC(=O)COCC(=O)NCCCC[C@H](NC(=O)[C@H](CCCCNC(C)=O)NC(=O)[C@H](CCCCN)NC(=O)[C@H](CCCNC(=N)N)NC(=O)C(C)(C)NC(=O)[C@H](CO)NC(=O)[C@H](Cc1c[nH]c2ccccc12)NC(=O)[C@@H](NC(=O)[C@H](CO)NC(=O)[C@H](CCCC)NC(=O)CNC(=O)[C@H](CCC(=O)O)NC(=O)C(C)(C)NC(=O)C(C)(C)NC(=O)[C@@H](NC(=O)[C@H](CCCCNC(C)=O)NC(=O)[C@H](C)NC(=O)[C@H](CCCNC(=N)N)NC(=O)[C@@H](NC(=O)[C@H](CCCCN)NC(=O)[C@H](CCC(=O)O)NC(=O)[C@H](CCCNC(=N)N)NC(=O)CNC(=O)[C@H](CCC(=O)O)NC(=O)[C@H](CC(C)C)NC(C)=O)C(C)C)[C@@H](C)CC)[C@@H](C)O)C(N)=O)C(=O)O)C(=O)O)C(=O)O [compound 94] (Ac-LEGREKVRAK(Ac)I[Aib][Aib]EG[Nle]STWS[Aib]RKK(Ac)K(X16)-NH2) | – | 90%
